For 41 compounds, EC50 and CC50 results are on record in US10428070B2, “Hepatitis B antiviral agents” (Enanta Pharmaceuticals, Inc., priority 2017, dated 2019).

In general, EC50 refers to the concentration that produces a half-maximal response. A word on the CC50: it is the concentration giving 50% cytotoxicity.

One data set deals with HBV. Briefly: HepAD38 antiviral assay: reduction of viral product accumulation (virion DNA by qPCR, HBsAg or HBeAg by ELISA). In kind it is cell-based, hepatitis B virus. The settings on record: HepAD38 cells; harvest five days after compound addition; 50% reduction of viral product accumulation relative to no drug controls. How it is done: Methods: HepAD38 cells are maintained as previously reported (Ladner et al, Antimicrob. Agents Chemother. 1997, […], 1715). Briefly, cells are passaged upon attaining confluency in DMEM/F12 media in the presence of 10% FBS, Penn/Strep, 250 μg/mL G418, and 1 μg/ml tetracycline. Novel compounds are screened by first washing cells three times with PBS to remove tetracycline, and plating in 96 well plates at 35,000 cells/well. Compounds dissolved in DMSO are then diluted 1:200 into wells containing cells. Five days after compound addition, material is harvested for analysis. For an extended 8 day analysis, cells are plated and treated as described above, but media and compound are refreshed on d2 and d5 post initial treatment.
On harvest day, virion DNA is obtained by lysing with Sidestep Lysis and Stabilization Buffer and then quantified via quantitative real time PCR. Commercially available ELISA kits are used to quantitate the viral proteins HBsAg (Alpco) or HbeAg (US Biological) by following the manufacturer's recommended protocol after diluting samples to match the linear range of their respective assays.
Background: Real-time PCR tracks product formation cycle by cycle.
Turning to `O=C(O)CCN1C(=O)OC[C@@]12CC1=C(c3ccn(C(F)F)n3)[C@H](c3ccc(F)cc3Cl)N=C(c3nccs3)N1C2` [Example 30], the concentration for a half-maximal effect (EC50) is below 100 nM.
The compound `O=C(O)CCN1C(=O)OC[C@@]12CC1=C(c3ccn(C(F)F)n3)[C@H](c3ccc(F)cc3Cl)N=C(c3nccs3)N1C2` [Example 22] gave a half-maximal effective concentration (EC50) above 400 nM.

Still in this data set, the particulars now being: Hepatitis B virus, HePAD38, 120 h, HepAD38 cells; harvest five days after compound addition; 50% reduction of viral product accumulation relative to no drug controls.
In turn, `CCOC(=O)C1=C2C[C@@]3(CNS(=O)(=O)N3)CN2C(c2nccs2)=N[C@H]1c1ccc(F)cc1Cl` (relative stereo) [Example 15] displayed a half-maximal effective concentration (EC50) below 100 nM.
The compound `CCOC(=O)C1=C2C[C@@]3(CNC(=O)N3)CN2C(c2nccs2)=N[C@H]1c1ccc(F)cc1Cl` (relative stereo) [Example 13] came in with an EC50 above 400 nM.
`COC(=O)CN1C(=O)OC[C@@]12CC1=C(c3ccn(C(F)F)n3)[C@H](c3ccc(F)cc3Cl)N=C(c3nccs3)N1C2` [Example 23] had an EC50 of 100 to 400 nM.
For the compound `C=CC1OC(=O)N[C@]12CC1=C(c3ccn(C(F)F)n3)[C@H](c3ccc(F)cc3Cl)N=C(c3nccs3)N1C2` (stereo partly shown) [Example 37], the EC50 was 100 to 400 nM.
`COCOCC1OC(=O)N[C@]12CC1=C(c3ccn(C(F)F)n3)[C@H](c3ccc(F)cc3Cl)N=C(c3nccs3)N1C2` (stereo partly shown) [Example 39] came in with an EC50 of 100 to 400 nM.
For `COC(=O)CCCN1C(=O)OC[C@]12CC1=C(c3ccn(C(F)F)n3)[C@H](c3ccc(F)cc3Cl)N=C(c3nccs3)N1C2` [Example 32], the EC50 is below 100 nM.
`CC1OC(=O)N[C@@]12CC1=C(c3ccn(C(F)F)n3)[C@H](c3ccc(F)cc3Cl)N=C(c3nccs3)N1C2` (stereo partly shown) [Example 44] gave an EC50 below 100 nM.
On the same count and under the same terms, with `CCOC(=O)C1=C2C[C@]3(COC(=O)N3)CN2C(c2nccs2)=N[C@H]1c1ccc(F)cc1Cl` (relative stereo) [Example 12] the figure was below 100 nM.
In the case of `COC(=O)CN1C(=O)OC[C@]12CC1=C(c3ccn(C(F)F)n3)[C@H](c3ccc(F)cc3Cl)N=C(c3nccs3)N1C2` [Example 27], the EC50 was above 400 nM.
On to `C=CCN1C[C@@]2(CC3=C(c4ccn(C(F)F)n4)[C@H](c4ccc(F)cc4Cl)N=C(c4nccs4)N3C2)OC1=O` [Example 43], for which the concentration giving a half-maximal response (EC50) is below 100 nM.
Take `O=C1N[C@]2(CC3=C(c4ccn(C(F)F)n4)[C@H](c4ccc(F)cc4Cl)N=C(c4nccs4)N3C2)C(CO)O1` (stereo partly shown) [Example 40]: the EC50 is below 100 nM.
Turning to `O=C1OC[C@]2(CC3=C(c4ccn(C(F)F)n4)[C@H](c4ccc(F)cc4Cl)N=C(c4nccs4)N3C2)N1C[C@@H](O)CO` [Example 35], the EC50 was 100 to 400 nM.
In turn, `O=C(O)CN1C(=O)OC[C@@]12CC1=C(c3ccn(C(F)F)n3)[C@H](c3ccc(F)cc3Cl)N=C(c3nccs3)N1C2` [Example 24] returned an EC50 above 400 nM.
Compound `O=C1NC[C@@]2(CC3=C(c4cnn(C(F)F)c4)[C@H](c4ccc(F)cc4Cl)N=C(c4nccs4)N3C2)N1` [Example 1] registered an EC50 below 100 nM.
With `CCOC(=O)C1=C2C[C@]3(CNC(=O)N3)CN2C(c2nccs2)=N[C@H]1c1ccc(F)cc1Cl` (relative stereo) [Example 14], the EC50 is below 100 nM.
For `O=C1NC[C@]2(CC3=C(c4cnn(C(F)F)c4)[C@H](c4ccc(F)cc4Cl)N=C(c4nccs4)N3C2)N1` [Example 2], the EC50 is below 100 nM.
As to `O=C(O)CN1C(=O)OC[C@]12CC1=C(c3ccn(C(F)F)n3)[C@H](c3ccc(F)cc3Cl)N=C(c3nccs3)N1C2` [Example 28], the EC50 is above 400 nM.
`CCN1C(=O)OC[C@@]12CC1=C(c3ccn(C(F)F)n3)[C@H](c3ccc(F)cc3Cl)N=C(c3nccs3)N1C2` [Example 20]: the EC50 lay in the range of 100 to 400 nM.
The same measure, in the same setting: in the case of `CCOC(=O)C1=C2C[C@@]3(COC(=O)N3)CN2C(c2nccs2)=N[C@H]1c1ccc(F)cc1Cl` (relative stereo) [Example 11] it was below 100 nM; in that of `CN1C(=O)OC[C@]12CC1=C(c3ccn(C(F)F)n3)[C@H](c3ccc(F)cc3Cl)N=C(c3nccs3)N1C2` [Example 26], below 100 nM.
`C=CCN1C(=O)OC[C@@]12CC1=C(c3ccn(C(F)F)n3)[C@H](c3ccc(F)cc3Cl)N=C(c3nccs3)N1C2` [Example 25] returned an EC50 of 100 to 400 nM.
Same read-out and setting: with `C=CCN1C(=O)OC[C@]12CC1=C(c3ccn(C(F)F)n3)[C@H](c3ccc(F)cc3Cl)N=C(c3nccs3)N1C2` [Example 31] the figure was above 400 nM; with `CN1C(=O)OC[C@@]12CC1=C(c3ccn(C(F)F)n3)[C@H](c3ccc(F)cc3Cl)N=C(c3nccs3)N1C2` [Example 19], below 100 nM.
`O=C1OC[C@]2(CC3=C(c4ccn(C(F)F)n4)[C@H](c4ccc(F)cc4Cl)N=C(c4nccs4)N3C2)N1C[C@H](O)CO` [Example 34] registered an EC50 above 400 nM.
`CCOC(=O)C1=C2C[C@]3(CNS(=O)(=O)N3)CN2C(c2nccs2)=N[C@H]1c1ccc(F)cc1Cl` (relative stereo) [Example 16] had an EC50 below 100 nM.
In turn, `O=C(O)CCCN1C(=O)OC[C@]12CC1=C(c3ccn(C(F)F)n3)[C@H](c3ccc(F)cc3Cl)N=C(c3nccs3)N1C2` [Example 33] had an EC50 of 100 to 400 nM.
For the compound `O=S1(=O)NC[C@@]2(CC3=C(c4cnn(C(F)F)c4)[C@H](c4ccc(F)cc4Cl)N=C(c4nccs4)N3C2)N1` [Example 10], the EC50 is below 100 nM.
In the case of `CC1OC(=O)N[C@]12CC1=C(c3ccn(C(F)F)n3)[C@H](c3ccc(F)cc3Cl)N=C(c3nccs3)N1C2` (stereo partly shown) [Example 38], the EC50 was below 100 nM.
`O=C1NC[C@]2(CC3=C(c4ccn(C(F)F)n4)[C@H](c4ccc(F)cc4Cl)N=C(c4nccs4)N3C2)O1` [Example 41]: the 50% effective concentration (EC50) lay within 100 to 400 nM.
`COC(=O)CCN1C(=O)OC[C@@]12CC1=C(c3ccn(C(F)F)n3)[C@H](c3ccc(F)cc3Cl)N=C(c3nccs3)N1C2` [Example 21] came in with an EC50 above 400 nM.
Regarding `O=C1NC[C@@]2(CC3=C(c4ccn(C(F)F)n4)[C@H](c4ccc(F)cc4Cl)N=C(c4nccs4)N3C2)O1` [Example 42], the EC50 lay in the range of 100 to 400 nM.
For `O=C1N[C@@]2(CO1)CC1=C(c3ccn(C(F)F)n3)[C@H](c3ccc(F)cc3Cl)N=C(c3nccs3)N1C2` [Example 17], the 50% effective concentration (EC50) was below 100 nM.
As to `O=S1(=O)NC[C@]2(CC3=C(c4cnn(C(F)F)c4)[C@H](c4ccc(F)cc4Cl)N=C(c4nccs4)N3C2)N1` [Example 5], the EC50 is below 100 nM.
Regarding `O=C1N[C@@]2(CO1)CC1=C(c3cnn(C(F)F)c3)[C@H](c3ccc(F)cc3Cl)N=C(c3nccs3)N1C2` [Example 3], the EC50 was below 100 nM.
The compound `CS(=O)(=O)OC1CCCC12CC1=C(c3cnn(C(F)F)c3)[C@H](c3ccc(F)cc3Cl)N=C(c3nccs3)N1C2` (stereo partly shown) [Example 6] displayed a 50% effective concentration (EC50) of 100 to 400 nM.
Consider `O=C1N[C@]2(CO1)CC1=C(c3cnn(C(F)F)c3)[C@H](c3ccc(F)cc3Cl)N=C(c3nccs3)N1C2` [Example 4], for which the half-maximal effective concentration (EC50) was below 100 nM.
Consider `C/C=C/CN1C(=O)OC[C@]12CC1=C(c3ccn(C(F)F)n3)[C@H](c3ccc(F)cc3Cl)N=C(c3nccs3)N1C2` [Example 36], for which the concentration giving a half-maximal response (EC50) was above 400 nM.
The compound `O=C1N[C@]2(CO1)CC1=C(c3ccn(C(F)F)n3)[C@H](c3ccc(F)cc3Cl)N=C(c3nccs3)N1C2` [Example 18] showed an EC50 below 100 nM.
`Fc1ccc([C@@H]2N=C(c3nccs3)N3CC4(CCCCC4)CC3=C2c2cnn(C(F)F)c2)c(Cl)c1` [Example 9] came in with an EC50 below 100 nM.

Test system in the next data set: not listed separately
Briefly: Compound toxicity, total ATP levels (ATPLite). In kind it is cell-based. The conditions noted are these: human, HepG2 cells, three days after compound addition, 50% reduction of total ATP levels (ATPLite) relative to no drug controls. As to the method: Compound toxicity is evaluated by seeding cells at 15,000 cells/well and treating with compound as described above.
On the technique in general: ATP-based viability assays read luminescence as a measure of living cells.
Compound `CCOC(=O)C1=C2C[C@@]3(CNS(=O)(=O)N3)CN2C(c2nccs2)=N[C@H]1c1ccc(F)cc1Cl` (relative stereo) [Example 15] yielded a CC50 at 3 days above 25000 nM.
`C=CCN1C[C@@]2(CC3=C(c4ccn(C(F)F)n4)[C@H](c4ccc(F)cc4Cl)N=C(c4nccs4)N3C2)OC1=O` [Example 43] had a half-maximal cytotoxic concentration (CC50) at 3 days above 25000 nM.
In the case of `O=C1NC[C@]2(CC3=C(c4cnn(C(F)F)c4)[C@H](c4ccc(F)cc4Cl)N=C(c4nccs4)N3C2)N1` [Example 2], the half-maximal cytotoxic concentration (CC50) at 3 days is above 25000 nM.
The same measure, in the same setting: in the case of `CN1C(=O)OC[C@@]12CC1=C(c3ccn(C(F)F)n3)[C@H](c3ccc(F)cc3Cl)N=C(c3nccs3)N1C2` [Example 19] it was above 25000 nM; in that of `O=S1(=O)NC[C@@]2(CC3=C(c4cnn(C(F)F)c4)[C@H](c4ccc(F)cc4Cl)N=C(c4nccs4)N3C2)N1` [Example 10], above 25000 nM.
`O=C1N[C@@]2(CO1)CC1=C(c3ccn(C(F)F)n3)[C@H](c3ccc(F)cc3Cl)N=C(c3nccs3)N1C2` [Example 17] yielded a CC50 at 3 days above 25000 nM.
As to `O=C1N[C@@]2(CO1)CC1=C(c3cnn(C(F)F)c3)[C@H](c3ccc(F)cc3Cl)N=C(c3nccs3)N1C2` [Example 3], the 50% cytotoxic concentration (CC50) at 3 days was above 25000 nM.
`O=C1N[C@]2(CO1)CC1=C(c3ccn(C(F)F)n3)[C@H](c3ccc(F)cc3Cl)N=C(c3nccs3)N1C2` [Example 18] registered a half-maximal cytotoxic concentration (CC50) at 3 days above 25000 nM.
